Source: patent US7709606B2, “Interacting polypeptide comprising a heptapeptide pattern and a cellular penetration domain” (Ecole Normale Superieure de Lyon, priority 2003, dated 2010)
Read-outs that look alike come from different tables or passages of the source.

How the values were obtained:
[1] = system: HIV-1-LA1; test: antiviral test in PHA-P activated PBMC, RT activity; type: cell-based; settings: for anti-HIV activity, replication of HIV-1-LA1: PBMC activated by PHA-P, 7th day, in words; for Percentage inhibition, Mean: HIV-1 LA1, day 7
Procedure: (§1) These viruses were amplified in vitro with umbilical blood mononuclear cells (UBMC) activated with PHA-P. The cell-free supernatant was centrifuged at […] for 10 minutes to eliminate soluble factors, and the residue was re-suspended in cell culture medium. Virus stocks were titrated using PBMC cells activated with PHA-P and 50% tissue culture infectious doses (TCID50) were calculated using Kärber's formula.
PBMC cells were pre-treated for 30 minutes by 5 concentrations of each molecule and infected with 75 TCID50 of the HIV-1-LA1 strain. AZT (1.6, 8, 40, 200 and 1000 nM) and indinavir (1.6, 8, 40, 200 and 1000 nM) were used as the control. […] The molecules were maintained throughout culture, and the cellular supernatant was harvested 7 days post infection and stored at −20° C. to measure viral replication by reverse transcriptase activity (RT) assay.
(§2) HIV replication was analyzed by assaying the RT activity in the supernatants from cell cultures using the RetroSys RT kit (Innovagen). The experiments were carried out 3 times and the results are expressed as the mean of the RT activity±the standard deviation (SD).
In a last step, it was examined whether SHPs were actually capable of inhibiting HIV-1 replication. This was carried out in PBMCs activated by PHA-P and in MDMs. […] The effects of different SHPs was thus tested at this time. AZT and indinavir were used as controls.

[2] = system: HIV-1/Ba-L; test: antiviral test in monocyte-derived macrophages (MDM), RT activity; type: cell-based; settings: for anti-HIV activity, HIV-1/Ba-L replication: MDM, in words; for Percentage inhibition, Mean / ED70 / ED90 / EC50: MDMs, HIV-1/Ba-L; for EC50: Human immunodeficiency virus 1, BAL, Macrophage, read-out: ED50 (the source's name)
Procedure: as §1
The MDM cells were pre-treated for 30 minutes in 6 concentrations of different molecules and infected with 30000 TCID50 of the HIV-1/Ba-L strain. AZT (0.8, 4, 20, 100 and 500 nM) and indinavir (0.8, 4, 20, 100 and 500 nM) were used as the control. […] The molecules were maintained for 7 days post infection, and the cellular supernatant was harvested 7, 14 and 21 days post infection and stored at −20° C. to measure viral replication by reverse transcriptase activity (RT) assay.
as §2

Structure (SMILES)	anti-HIV activity, replication of HIV-1-LA1 [1]	ED70 ([1]; PBMCs, HIV-1-LA1, 7th day) [nM]	ED90 ([1]; PBMCs, HIV-1-LA1, 7th day) [nM]	Percentage inhibition, Mean ([1]; PBMCs, Dose 1.6 (nM)) [%]	Percentage inhibition, Mean ([1]; PBMCs, Dose 8 (nM)) [%]	Percentage inhibition, Mean ([1]; PBMCs, Dose 40 (nM)) [%]	Percentage inhibition, Mean ([1]; PBMCs, Dose 200 (nM)) [%]	Percentage inhibition, Mean ([1]; PBMCs, Dose 1000 (nM)) [%]	anti-HIV activity, HIV-1/Ba-L replication [2]	Percentage inhibition, Mean ([2]; Day 7, dose 0.8 (nM)) [%]	Percentage inhibition, Mean ([2]; Day 7, dose 4 (nM)) [%]	Percentage inhibition, Mean ([2]; Day 7, dose 20 (nM)) [%]	Percentage inhibition, Mean ([2]; Day 7, dose 100 (nM)) [%]	Percentage inhibition, Mean ([2]; Day 7, dose 500 (nM)) [%]	ED70 ([2]; Day 14) [nM]	ED90 ([2]; Day 14) [nM]	Percentage inhibition, Mean ([2]; Day 14, dose 0.8 (nM)) [%]	Percentage inhibition, Mean ([2]; Day 14, dose 4 (nM)) [%]	Percentage inhibition, Mean ([2]; Day 14, dose 20 (nM)) [%]	Percentage inhibition, Mean ([2]; Day 14, dose 100 (nM)) [%]	further results
Cc1cn([C@H]2C[C@H](N=[N+]=[N-])[C@@H](CO)O2)c(=O)[nH]c1=O [AZT, reference compound]	effectively inhibited	13.5	19	0	81	98	98	100	reduced in a dose-dependent manner	76	72	87	88	93	9	64	0	55	82	92	Percentage inhibition, Mean ([2]; Day 14, dose 500 (nM)): 100%; Percentage inhibition, Mean ([2]; Day 21, dose 0.8 (nM)): 0%; Percentage inhibition, Mean ([2]; Day 21, dose 4 (nM)): 0%; Percentage inhibition, Mean ([2]; Day 21, dose 20 (nM)): 68%; Percentage inhibition, Mean ([2]; Day 21, dose 100 (nM)): 81%; Percentage inhibition, Mean ([2]; Day 21, dose 500 (nM)): 100%
CC(C)(C)NC(=O)[C@@H]1CN(Cc2cccnc2)CCN1C[C@@H](O)C[C@@H](Cc1ccccc1)C(=O)N[C@H]1c2ccccc2C[C@H]1O [IDV, indinavir, reference compound]	effectively inhibited	18	25.5	0	67	92	100	100	reduced in a dose-dependent manner	59	69	90	93	97	26.5	34.5	0	0	68	100	EC50 ([1]; Human immunodeficiency virus 1, PBMC, PBMCs, HIV-1-LA1, 7th day, read-out: ED50 (the source's name)): 14 nM; EC50 ([2]; 336 h, Day 14): 22 nM; EC50 ([2]; 504 h, Day 21): 22 nM; Percentage inhibition, Mean ([2]; Day 14, dose 500 (nM)): 100%; ED70 ([2]; Day 21): 32 nM; ED90 ([2]; Day 21): 62 nM; Percentage inhibition, Mean ([2]; Day 21, dose 0.8 (nM)): 0%; Percentage inhibition, Mean ([2]; Day 21, dose 4 (nM)): 0%; Percentage inhibition, Mean ([2]; Day 21, dose 20 (nM)): 47%; Percentage inhibition, Mean ([2]; Day 21, dose 100 (nM)): 96%; Percentage inhibition, Mean ([2]; Day 21, dose 500 (nM)): 100%
